Assay results: US8591876B2, “Methods of decreasing sebum production in the skin” (priority 2010, dated 2013)

Legend:
human sebocytes (SEB-1) = assay: Cytotoxicity to human sebocytes (SEB-1), Cell Titer-Blue Cell Viability Assay; assay type: cell-based; conditions: in reference to cells incubated with media alone
[1] = test system: normal human keratinocytes (NHEK); assay: Cytotoxicity to normal human keratinocytes (NHEK), Cell Titer-Blue Cell Viability Assay; assay type: cell-based; conditions: in reference to cells incubated with media alone

SMILES: N[C@@H](CCC(=O)N[C@@H](CSN=O)C(=O)NCC(=O)O)C(=O)O [GSNO, S-nitrogluthione]
- % SEB-1 Killed (human sebocytes (SEB-1); 0.12 mg/ml, 24 hr): 6%
- % SEB-1 Killed (human sebocytes (SEB-1); 0.12 mg/ml, 48 hr): 11%
- % SEB-1 Killed (human sebocytes (SEB-1); 0.12 mg/ml, 72 hr): 19%
- % SEB-1 Killed (human sebocytes (SEB-1); 0.6 mg/ml, 24 hr): 48%
- % SEB-1 Killed (human sebocytes (SEB-1); 0.6 mg/ml, 48 hr): 68%
- % SEB-1 Killed (human sebocytes (SEB-1); 0.6 mg/ml, 72 hr): 67%
- % SEB-1 Killed (human sebocytes (SEB-1); 1.2 mg/ml, 24 hr): 85%
- % SEB-1 Killed (human sebocytes (SEB-1); 1.2 mg/ml, 48 hr): 97%
- % SEB-1 Killed (human sebocytes (SEB-1); 1.2 mg/ml, 72 hr): 98%
- % NHEK Killed ([1]; 0.12 mg/ml, 24 hr): 4%
- % NHEK Killed ([1]; 0.12 mg/ml, 48 hr): 5%
- % NHEK Killed ([1]; 0.12 mg/ml, 72 hr): 15%
- % NHEK Killed ([1]; 0.6 mg/ml, 24 hr): 8%
- % NHEK Killed ([1]; 0.6 mg/ml, 48 hr): −11%
- % NHEK Killed ([1]; 0.6 mg/ml, 72 hr): −3%
- % NHEK Killed ([1]; 1.2 mg/ml, 24 hr): 34%
- % NHEK Killed ([1]; 1.2 mg/ml, 48 hr): 53%
- % NHEK Killed ([1]; 1.2 mg/ml, 72 hr): 44%
